Assay results published in patent US7723299B2, “Methods for treating rheumatoid arthritis using a CTLA-4 fusion protein” (ForHumanTech. Co., Ltd., priority 2005, dated 2010).
No end group written: not given here.

How the values were obtained:
[1] = test system: HeLa, HepG2, HaCat and NIH3T3; assay: Transduction efficiency in various cell lines, X-gal staining; assay type: cell-based; settings: 1 hour incubation with Hph-1-β-gal
Method: FIG. 1C are photographs of transduction efficiency of Hph-1 in several cell lines, including HeLa, HepG2, HaCat and NIH3T3. After 1 hour incubation with Hph-1-β-gal, cells were fixed and stained with X-gal solution. The images were then captured by fluorescence microscopy.
After the Hph-1-β-gal construct was transduced into each cell line for 1 hour, the cells were washed with PBS and fixed immediately. Then, the fixed cells were incubated with X-Gal solution for 1-3 hours at 37° C. The mice tissue samples from the liver, kidney, heart, lung, spleen and brain were isolated at 12 hours after i.p. injection of Hph-1-β-gal, sectioned (in 10- and 50-μm sections), and assayed using an X-Gal staining kit (Roche) (Schwarze S. R., et al., Science 285:1569-1572 (1999)). The image was captured by fluorescence microscopy (Nikon). Transduction capacity of Hph-1-β-gal was also analyzed by western blot analysis. […] Bound antibody was detected using horseradish peroxidase-conjugated antibody to mouse IgG (1:5,000), followed by enhanced chemiluminescence (Pierce). To monitor the localization of the Hph-1-PTD-eGFP fusion protein, Hela cells were incubated with 10 μM of Hph-1-eGFP fusion protein for 30 min and the fluorescence of eGFP was analyzed by confocal microscopy (Bio Rad). […]

Jurkat (E6.1) cells = assay: Transduction efficiency and kinetics of Hph-1-β-gal, western blot; assay type: cell-based
Method: After the Hph-1-β-gal construct was transduced into each cell line for 1 hour, the cells were washed with PBS and fixed immediately. Then, the fixed cells were incubated with X-Gal solution for 1-3 hours at 37° C. The mice tissue samples from the liver, kidney, heart, lung, spleen and brain were isolated at 12 hours after i.p. injection of Hph-1-β-gal, sectioned (in 10- and 50-μm sections), and assayed using an X-Gal staining kit (Roche) (Schwarze S. R., et al., Science 285:1569-1572 (1999)). The image was captured by fluorescence microscopy (Nikon). Transduction capacity of Hph-1-β-gal was also analyzed by western blot analysis. Equal numbers of cells were solubilized in SDS-PAGE sample buffer and the proteins were resolved on a 12% gel, and blotted onto PVDF, which was probed with monoclonal antibody (1:1,000) to β-gal (Cell Signaling). Bound antibody was detected using horseradish peroxidase-conjugated antibody to mouse IgG (1:5,000), followed by enhanced chemiluminescence (Pierce). To monitor the localization of the Hph-1-PTD-eGFP fusion protein, Hela cells were incubated with 10 μM of Hph-1-eGFP fusion protein for 30 min and the fluorescence of eGFP was analyzed by confocal microscopy (Bio Rad).
Using the purified Hph-1-β-gal fusion protein or the control β-gal protein, transduction efficiency was analyzed by western blot analysis in Jurkat (E6.1) cells. […] (FIG. 11B).

Zap70, ERK and JNK = assay: Tyrosine phosphorylation of signaling mediators after TcR stimulation; assay type: cell-based; settings: T cells
Jurkat T cells = assay: Transduction efficiency and kinetics of Hph-1-ctCTLA-4, intracellular staining; assay type: cell-based
Method: Transduction efficiency of Hph-1-HA-ctCTLA-4 was analyzed by intracellular staining using HA-fluorescein mAb (Cell Signaling). After cells were permeablized by cytofix/cytoperm solution (Pharmingen) and incubated with HA-fluorescein mAb at 4° C. for 30 min. Intracellular fluorescence was determined by FACS calibur (Becton Dickinson).
By taking advantage of the capacity of Hph-1-PTD to deliver a large target protein into the cells or organs in vivo through nasal airway, a fusion protein of Hph-1-PTD and the cytoplasmic domain of CTLA-4 (Hph-1-PTD-ctCTLA-4) was constructed as described in FIG. 3A, to be used for local suppression of the immune response in an asthma model. We constructed control proteins comprised of ctCTLA-4 without Hph-1-PTD and Hph-1-ctCTLA-4YF, in which two tyrosine residues essential for its negative function were mutated into phenylalanine. The transduction efficiency of Hph-1-ctCTLA-4 was tested in Jurkat T cells, which are known not to express CTLA-4 on the surface. These cells were treated with different concentrations of Hph-1-ctCTLA-4 for different periods of time, and both the transduction efficiency and kinetics were analyzed by intracellular staining.

[2] = test system: Jurkat T cells and primary human CD4^+ T cells; assay: IL-2 secretion of T cells activated with anti-CD3 and anti-CD28 mAbs, ELISA; assay type: cell-based; settings: for inhibition of induction of IL-2 secretion: Jurkat or human CD4^+ T cells, fusion and control proteins
Method: (§1) Primary human CD4^+ T cells were purified from buffy coats from healthy donors. PBMC were isolated by density gradient centrifugation using Histopaque (Sigma). The lymphocyte layer was collected and CD4^+ T cells were isolated by MACS column using CD4 microbeads (Miltenyi Biotec) (Busch R., et al., J. Immunol. Methods 286:97-109 (2004)).
(§2) One million Jurkat (E6.1) cells or primary human CD4^+ T cells were treated with Hph-1-ctCTLA-4 for 1 hour, then washed with PBS and incubated with 0.25 μg of anti-CD28 mAb (Pharmingen) for 20 min at 4° C. The anti-CD28 mAb bound cells were further activated in 0.05 μg of anti-CD3 mAb (Pharmingen) coated plates for 20 hours. Each cell was stained with anti-CD69-PE and anti-CD25-FITC antibodies (Pharmingen) and analyzed by FACS calibur (Becton Dickinson). The supernatant in each well was analyzed for the level of secreted IL-2 by ELISA (R&D system).
(§3) To examine whether the delivered Hph-1-ctCTLA-4 can inhibit T cell activation, Jurkat T cells or primary human CD4^+ T cells were treated with Hph-1-ctCTLA-4 and stimulated with anti-CD28 mAb and plate-bound anti-CD3 mAb. The levels of activation-induced surface proteins such as CD69 and CD25 were analyzed by FACS.

OVA-challenged mice = assay: OVA-induced allergic asthma model; settings: for histological examination of lung tissues, infiltration of inflammatory cells / infiltration of inflammatory cells (eosinophils, macrophages, neutrophils, lymphocytes) into BAL fluid: OVA challenge; for infiltration of inflammatory cells (eosinophils, macrophages, neutrophils, lymphocytes) into BAL fluid: intra-nasal pretreatment
[3] = test system: Jurkat T cells or primary human CD4^+ T cells; assay: Induction of CD69 and CD25 on activated T cells, FACS; assay type: cell-based; settings: anti-CD28 mAb and plate-bound anti-CD3 mAb stimulation
Method: as §1, §2, §3

[4] = single pretreatment, 25 μg, OVA-challenged mice

Substance	cells positive for β-gal enzyme activity [1] [%]	reduction of transduction efficiency at 4° C. (Jurkat (E6.1) cells; 4° C.) [%]	concentration dependence of protein transduction (Jurkat (E6.1) cells; Jurkat (E6.1) cells)	induction of tyrosine phosphorylation of Zap70, ERK and JNK (Zap70, ERK and JNK)	time to maximal levels of intracellular protein (Jurkat T cells; after incubation) [min]	transduction into the cells (Jurkat T cells; intracellular staining)	concentration that effectively blocks T cell activation [2] [pM]	level of inhibition of IL-2 secretion compared with CsA ([2]; 10 pM of Hph-1-ctCTLA-4 versus CsA)	inhibition of induction of IL-2 secretion [2]	fold lower concentration than CsA for comparable inhibition of T cell activation ([2]; versus CsA) [fold]	histological examination of lung tissues, infiltration of inflammatory cells (OVA-challenged mice)	inflammatory index in the lung (OVA-challenged mice; OVA-challenged mice, pretreated)	infiltration of inflammatory cells (eosinophils, macrophages, neutrophils, lymphocytes) into BAL fluid (OVA-challenged mice; 25 μg)	OVA-induced airway hyper-responsiveness to methacholine (OVA-challenged mice; nebulized methacholine)	neutrophil and macrophage infiltration (OVA-challenged mice; single administration of about 1 mg/kg through the nasal route before the first OVA challenge)	generation of IFN-γ and TGF-β in BAL fluid (OVA-challenged mice; [4])	production of eotaxin and Th2 type cytokines (IL-5, IL-6, IL-13) in BAL fluid (OVA-challenged mice; [4])	induction of surface marker proteins CD69 and CD25 [3]
Hph-1-PTD: protein transduction domain of 11 amino acids (YARVRRRGPRR) from human transcriptional factor Hph-1; tested as β-gal fusion (also: tested as β-gal fusion; listed as Homo sapiens)	~100	40	concentration-dependent manner	–	–	–	–	–	–	–	–	–	–	–	–	–	–	–
Hph-1-ctCTLA-4: fusion protein of Hph-1-PTD and the cytoplasmic domain of CTLA-4 (KMLKKRSPLTTGVYVKMPPTEPECEKQFQPYFIPIN; ctCTLA-4)	–	–	–	markedly inhibited	60	concentration-dependent	10	better or equivalent	concentration dependent manner at picomolar range	1000	Inflammatory cells could not infiltrate through the mucus	significantly reduced	prevent against the infiltration of these inflammatory cells into the BAL fluid to the levels observed in the PBS-challenged control group	substantially attenuated	effectively inhibited	not found to affect	significantly inhibited	significantly inhibited
Hph-1-ctCTLA-4YF: control protein in which two tyrosine residues essential for its negative function were mutated into phenylalanine (KMLKKRSPLTTGVFVKMPPTEPECEKQFQPFFIPIN; ctCTLA-4YF) [reference compound]	–	–	–	–	–	–	–	–	neither ctCTLA-4 without Hph-1-PTD nor Hph-1-ctCTLA-4YF blocked IL-2 secretion	–	not observed	–	did not show these inhibitory effects	–	–	–	no inhibition	did not show any inhibition
